Measurements taken from paper PMC11503492, “Activity-Based DNA-Encoded Library Screening for Selective Inhibitors of Eukaryotic Translation” (ACS Central Science, 2024).

How the values were obtained:
[1] = tested on: PCSK9[1:33]-GFP translation from mRNA; assay: IVTT activity assay of PCSK9[1:33]-GFP initiated with RNA template; type: biochemical
Method: Figure S10. Activity of compounds 8 and 9 on transcription. (A) Screening hits 8 and 9 were analyzed in dose-response IVTT activity assays of PCSK9[1:33]-GFP initiated with DNA (black) and RNA (gray) template. (B) Products of PCSK9[1:33]-GFP T7 transcription reactions incubated with DMSO, screening hits 8 and 9, or PF846 were visualized on a 1.5% agarose gel
(1 picture or pasted object on this page, not shown here)

[2] = tested on: PCSK9-FS[1:33]-GFP translation; assay: Microfluidic activity-based DEL counter screen in WG IVTT droplets, PCSK9-FS[1:33]-GFP, hit k class by sequencing; type: biochemical, wheat germ; conditions: number of times hit structure observed on distinct beads, summed across PCSK9-FS[1:33]-GFP screens; *** p < 0.001, NS not significant
Method: The validated PF846-inspired library was screened to discover novel translation inhibitors. DEL beads were encapsulated in microfluidic droplets of WG IVTT and irradiated with UV in flow to liberate DEL members into the droplets. The photodosed droplets were incubated and sorted based on fluorescence.[25] PCSK9[1:33]-GFP was chosen as a proof-of-concept target, and PCSK9-FS[1:33]-GFP was used as a counter screen target to identify nonselective compounds. PC-HygB were mixed with DEL beads and screened in the microfluidic device for inhibitors of translation. […] Droplet generation, bead introduction, and library and control bead hit rate were uniform during the screen (Figure 3, bottom).
Hit collection DNA tags from the PCSK9[1:33]-GFP and PCSK9-FS[1:33]-GFP screens were sequenced to deduce the structures of molecules that inhibited PCSK9[1:33]- or PCSK9-FS[1:33]-GFP translation. Hit structure k class, the number of times a given hit structure is observed on distinct beads,[31] was summed across screens and visualized as a heat map (Figure 4A). […] The combined hit sets for the two templates contained 121 unique hits with k ≥ 17 across the two screening campaigns. The most frequently observed cycle 1 starter BBs were 1 and 2, which share an 8-methylisoquinoline moiety, but differ in the vector for cycle 2 carboxylic acid connection, and 3, which contains an N-methylazaindole moiety. The most frequently identified cycle 2 tails included carboxylic acids 4–7. […] Substituted pyrazole 6 and pyridyl-benzimidazole 7 also appeared frequently with the aforementioned starters. There were 5 hits that appeared with high k class in both PCSK9[1:33]-GFP and PCSK9[1:33]-FS-GFP screening campaigns.
319 the droplet experiment to homogenize the bead suspension. Syringes were connected to
320 fluidic inputs with microbore Tygon tubing (0.01” x 0.03” IC × OD). Droplet generation oil
321 (OIL1) was 1% picosurf in HFE. Spacing (OIL2) and pinning (OIL3) oils were neat HFE.
322 Assay reagents were driven by displacement syringe pumps (Legato 100, KD Scientific,
323 Holliston, MA) through the circuit. OIL2 and OIL3 were initially flowed (22 µL/min and
324 12 µL/min, respectively) and hit and waste shunt tubing were clamped to backfill the
325 circuit. Once the incubator was filled with oil, the hit and waste tubing were unclamped
326 and back shunts were clamped. AQ1, AQ2, and OIL1 flows were initiated (960 nL/min,
327 640 nL/min, and 1200 nL/min, respectively) and held constant during the screen. Once
328 droplet generation equilibrated (∼10 min), the main shunt was clamped and droplets
329 started to fill the incubator. When droplets filled the incubator and entered the sorting
330 region, data acquisition and screening was initiated.
331 The custom confocal LIF detection setup and LabView code were previously described.S3
332 Briefly, photon counting PMTs (H7828, Hamamatsu, Middlesex, NJ) were used to detect
333 droplet fluorescence emission using a custom two-channel (520 and 570 nm) confocal mi-
334 croscope with laser excitation (488 nm, 20 mW, OBIS-488 20LS, Coherent Inc., Santa Clara,
335 CA). A data acquisition board (DAQ, NI, USB-6341, National Instruments) was used to
336 digitize PMT signal, which was binned into counts, and in-house LabView code was used
337 to control acquisition and execute droplet sorting decisions. Signal was smoothed in real-
338 time using median-filter smoothing (width = 3). Droplets were identified by the 570 nm
339 channel signal and the maximum signal in the 520 nm channel (max = countsn-1 when
340 countsn <countsn-1) was set as the droplet peak value. A roaming sort threshold was
342 the 520 nm channel. The threshold was calculated as µ - 5σ, where µ andσ were the mean
343 and standard deviation of the previous 300 droplets’ fluorescence values, respectively. Hit
344 droplets were not included in the calculation of droplet mean and standard deviation. A […]

| Structure (SMILES) | activity when translation initiated from mRNA rather than plasmid DNA (in words) [1] | k class PCSK9-FS [2] |
| --- | --- | --- |
| Cc1cccc2ccnc(N(C(=O)[C@H]3CCCN(C(=O)c4cccc5c(C#N)c[nH]c45)C3)[C@@H]3CCCNC3)c12 [Compound 8] | active | 0 |
| Cc1cccc2ccnc(N(C(=O)C3CCN(C(=O)c4cccc5c(C#N)c[nH]c45)CC3)[C@@H]3CCCNC3)c12 [Compound 9] | inactive | 18 |
